From patent EP0262903A2, “New acyl derivatives of 20-modified tylosin and desmycosin compounds” (priority 1986, dated 1988)
In brackets after ≈: the same amount, converted by molar mass. Read-outs that look alike come from different tables or passages of the source.

Assays:
Escherichia coli EC14 = test: MIC, standard agar-dilution assay; assay type: cell-based; details: Escherichia coli EC14; agar dilution; read-out: MIC
Method: (§1) The MIC's in Table II were determined by standard agar-dilution assays. The MIC's in Table III were obtained using conventional broth-dilution microtiter tests.

[1] = system: Haemophilus influenzae 76; test: MIC, standard agar-dilution assay; assay type: cell-based; details: Haemophilus influenzae 76; Ampicillin-resistant strain; agar dilution; read-out: MIC
Method: as §1

[2] = system: Haemophilus influenzae C.L.; test: MIC, standard agar-dilution assay; assay type: cell-based; details: Haemophilus influenzae C.L.; Ampicillin-sensitive strain; agar dilution; read-out: MIC
Method: as §1

[3] = system: Klebsiella pneumoniae X68; test: MIC, standard agar-dilution assay; assay type: cell-based
Method: as §1

[4] = system: Pseudomonas aeruginosa X239; test: MIC, standard agar-dilution assay; assay type: cell-based; details: Pseudomonas aeruginosa X239; agar dilution; read-out: MIC
Method: as §1

[5] = system: Staphylococcus aureus S13E; test: MIC, standard agar-dilution assay; assay type: cell-based
Method: as §1

[6] = system: Staphylococcus aureus V41; test: MIC, standard agar-dilution assay; assay type: cell-based; details: Staphylococcus aureus V41; Penicillin-resistant strain; agar dilution; read-out: MIC
Method: as §1

[7] = system: Staphylococcus aureus X1.1; test: MIC, standard agar-dilution assay; assay type: cell-based; details: Staphylococcus aureus X1.1; agar dilution; read-out: MIC
Method: as §1

[8] = system: Staphylococcus aureus X400; test: MIC, standard agar-dilution assay; assay type: cell-based; details: Staphylococcus aureus X400; Methicillin-resistant strain; agar dilution; read-out: MIC
Method: as §1

[9] = system: Staphylococcus epidermidis 222; test: MIC, standard agar-dilution assay; assay type: cell-based; details: Staphylococcus epidermidis 222; agar dilution; read-out: MIC
Method: as §1

[10] = system: Staphylococcus epidermidis EPI1; test: MIC, standard agar-dilution assay; assay type: cell-based; details: Staphylococcus epidermidis EPI1; agar dilution; read-out: MIC
Method: as §1

[11] = system: Streptococcus faecalis 2041; test: MIC, standard agar-dilution assay; assay type: cell-based; details: Enterococcus faecalis; Streptococcus faecalis 2041; agar dilution; read-out: MIC
Method: as §1

[12] = system: Streptococcus faecalis X66; test: MIC, standard agar-dilution assay; assay type: cell-based; details: Enterococcus faecalis; Streptococcus faecalis X66; agar dilution; read-out: MIC
Method: as §1

[13] = system: Streptococcus pneumoniae Park I; test: MIC, standard agar-dilution assay; assay type: cell-based; details: Streptococcus pneumoniae Park I; agar dilution; read-out: MIC
Method: as §1

[14] = system: Streptococcus pyogenes C203; test: MIC, standard agar-dilution assay; assay type: cell-based; details: Streptococcus pyogenes C203; agar dilution; read-out: MIC
Method: as §1

[15] = system: Bordetella bronchiseptica; test: MIC, conventional broth-dilution microtiter test; assay type: cell-based
Method: as §1

[16] = system: Mycoplasma gallisepticum 15E; test: MIC, conventional broth-dilution microtiter test; assay type: cell-based; details: Mycoplasmoides gallisepticum
Method: as §1

[17] = system: Mycoplasma gallisepticum 29C; test: MIC, conventional broth-dilution microtiter test; assay type: cell-based; details: Mycoplasmoides gallisepticum
Method: as §1

[18] = system: Mycoplasma gallisepticum 36H; test: MIC, conventional broth-dilution microtiter test; assay type: cell-based; details: Mycoplasmoides gallisepticum
Method: as §1

[19] = system: Mycoplasma hyopneumoniae S5972; test: MIC, conventional broth-dilution microtiter test; assay type: cell-based; details: Mesomycoplasma hyopneumoniae
Method: as §1

Mycoplasma hyorhinis 29E = test: MIC, conventional broth-dilution microtiter test; assay type: cell-based
Method: as §1

Mycoplasma synoviae 40A = test: MIC, conventional broth-dilution microtiter test; assay type: cell-based; details: Mycoplasmopsis synoviae
Method: as §1

[20] = system: Pasteurella hemolytica 22C; test: MIC, conventional broth-dilution microtiter test; assay type: cell-based
Method: as §1

[21] = system: Pasteurella hemolytica 23C; test: MIC, conventional broth-dilution microtiter test; assay type: cell-based
Method: as §1

[22] = system: Pasteurella hemolytica 41D; test: MIC, conventional broth-dilution microtiter test; assay type: cell-based
Method: as §1

[23] = system: Pasteurella multocida 17E; test: MIC, conventional broth-dilution microtiter test; assay type: cell-based; details: Bovine isolate
Method: as §1

[24] = system: Pasteurella multocida 22A; test: MIC, conventional broth-dilution microtiter test; assay type: cell-based
Method: as §1

[25] = system: Pasteurella multocida 40G; test: MIC, conventional broth-dilution microtiter test; assay type: cell-based
Method: as §1

[26] = system: Pasteurella multocida 60A; test: MIC, conventional broth-dilution microtiter test; assay type: cell-based; details: Avian isolate
Method: as §1

[27] = system: Pasteurella multocida 68C; test: MIC, conventional broth-dilution microtiter test; assay type: cell-based
Method: as §1

Staphylococcus aureus = test: MIC, conventional broth-dilution microtiter test; assay type: cell-based
Method: as §1

Streptococcus sp. 19F = test: MIC, conventional broth-dilution microtiter test; assay type: cell-based
Method: as §1

[28] = system: Streptococcus pyogenes C203; test: ED50 in mice experimentally infected with S. pyogenes C203; assay type: in vivo; details: two doses given 1 and 4 hours post-infection, dose protecting 50% of the test animals
Method: The formula 1 compounds have shown in vivo antimicrobial activity against experimentally-induced infections in laboratory animals. When two doses of test compound were administered to mice experimentally infected with S. pyogenes C203, the activity observed was measured as an ED₅₀ value [effective dose in mg/kg to protect 50% of the test animals: see Warren Wick, et 5 al., J. Bacteriol. 81, 233-235 (1961)].

[29] = C203, mice, oral, read-out: ED50 Oral
[30] = C203, sc, mice, subcutaneous, read-out: ED50 Subcutaneous

Row | Structure (SMILES) | MIC (Escherichia coli EC14) [µg/mL] | MIC [1] [µg/mL] | MIC [2] [µg/mL] | MIC [4] [µg/mL] | MIC [5] [µg/mL] | MIC [6] [µg/mL] | MIC [7] [µg/mL] | MIC [8] [µg/mL] | MIC [9] [µg/mL] | MIC [10] [µg/mL] | MIC [11] [µg/mL] | MIC [12] [µg/mL] | MIC [13] [µg/mL] | MIC [14] [µg/mL] | MIC [15] [µg/mL] | MIC [16] [µg/mL] | MIC [17] [µg/mL] | MIC [18] [µg/mL] | MIC [19] [µg/mL] | MIC [20] [µg/mL] | further results
1 | CCC1OC(=O)CC(O)C(C)C(OC2OC(C)C(O)C(N(C)C)C2O)C(CCOc2ccccc2)CC(C)C(=O)C=CC(C)=CC1COC1OC(C)C(OC(C)=O)C(OC)C1OC (stereo not drawn) [Compound 2, 4ʹʹ-O-Acetyl-20-DH-20-O-phenyl-desmycosin] | > 128 | 128 (≈ 143 µM) | 128 (≈ 143 µM) | > 128 | 2 (≈ 2.24 µM) | 2 (≈ 2.24 µM) | 2 (≈ 2.24 µM) | 2 (≈ 2.24 µM) | 1 (≈ 1.12 µM) | 2 (≈ 2.24 µM) | 32 (≈ 35.9 µM) | 16 (≈ 17.9 µM) | 2 (≈ 2.24 µM) | 1 (≈ 1.12 µM) | > 50 | 50 (≈ 56 µM) | 0.78 (≈ 0.874 µM) | 50 (≈ 56 µM) | 25 (≈ 28 µM) | > 50 | MIC ([3]; Klebsiella pneumoniae X68, agar dilution, read-out: MIC): > 128 µg/mL; MIC (Mycoplasma hyorhinis 29E): 50 µg/mL (≈ 56 µM); MIC (Mycoplasma synoviae 40A): 3.12 µg/mL (≈ 3.5 µM); MIC [21]: 50 µg/mL (≈ 56 µM); MIC [22]: > 50 µg/mL; MIC [23]: 50 µg/mL (≈ 56 µM); MIC [24]: > 50 µg/mL; MIC [25]: 50 µg/mL (≈ 56 µM); MIC [26]: > 50 µg/mL; MIC [27]: 25 µg/mL (≈ 28 µM); MIC (Staphylococcus aureus): 1.56 µg/mL (≈ 1.75 µM); MIC (Streptococcus sp. 19F): 12.5 µg/mL (≈ 14 µM); ED50 [28, 29]: 10.9 mg/kg; ED50 [28, 30]: 4.46 mg/kg
2 | CCC1OC(=O)CC(O)C(C)C(OC2OC(C)C(O)C(N(C)C)C2O)C(CCOc2ccccc2)CC(C)C(=O)C=CC(C)=CC1COC1OC(C)C(OC(=O)CN2CCCC2)C(OC)C1OC (stereo not drawn) [Compound 13, 20-DH-20-O-Phenyl-4ʹʹ-O-(pyrrolidin-1-ylacetyl)-desmycosin] | > 128 | 32 (≈ 33.3 µM) | 32 (≈ 33.3 µM) | > 128 | 1 (≈ 1.04 µM) | 1 (≈ 1.04 µM) | 0.5 (≈ 0.52 µM) | 1 (≈ 1.04 µM) | 0.5 (≈ 0.52 µM) | 1 (≈ 1.04 µM) | 16 (≈ 16.6 µM) | 16 (≈ 16.6 µM) | 2 (≈ 2.08 µM) | 1 (≈ 1.04 µM) | > 50 | 50 (≈ 52 µM) | 1.56 (≈ 1.62 µM) | 50 (≈ 52 µM) | > 50 | > 50 | MIC ([3]; Klebsiella pneumoniae, X68): > 128 µg/mL; MIC [21]: 50 µg/mL (≈ 52 µM); MIC [22]: > 50 µg/mL; MIC [23]: 50 µg/mL (≈ 52 µM); MIC [24]: 50 µg/mL (≈ 52 µM); MIC [25]: 25 µg/mL (≈ 26 µM); MIC [26]: 50 µg/mL (≈ 52 µM); MIC [27]: 25 µg/mL (≈ 26 µM); MIC (Staphylococcus aureus): 3.12 µg/mL (≈ 3.25 µM); MIC (Streptococcus sp. 19F): 6.25 µg/mL (≈ 6.5 µM); ED50 [28, 29]: 24 mg/kg; ED50 [28, 30]: 10 mg/kg
